Source: publication PMC11078216, “Discovery of potent and selective activity-based probes (ABPs) for the deubiquitinating enzyme USP30” (RSC Chemical Biology, 2024)
Values belong to the compound of their own block, whether it stands above or below them.

Experiments:
USP30 = molecular target: T1, USP30 (Homo sapiens, UniProt Q70CQ3); experiment: ABPP chemical proteomics (LC-MS/MS) in HEK293T cells; format: cell-based; details: for probe concentration for detection of USP30 activity in intact cells: 10 min incubation; for Difference (log2 fold change of enrichment): USP30
T1 construct: We next determined cellular engagement of endogenous USP30 with IMP-2587 or IMP-2586; endogenous in cells; host or cells: HEK293T
T1 sequence (Q70CQ3 1-517): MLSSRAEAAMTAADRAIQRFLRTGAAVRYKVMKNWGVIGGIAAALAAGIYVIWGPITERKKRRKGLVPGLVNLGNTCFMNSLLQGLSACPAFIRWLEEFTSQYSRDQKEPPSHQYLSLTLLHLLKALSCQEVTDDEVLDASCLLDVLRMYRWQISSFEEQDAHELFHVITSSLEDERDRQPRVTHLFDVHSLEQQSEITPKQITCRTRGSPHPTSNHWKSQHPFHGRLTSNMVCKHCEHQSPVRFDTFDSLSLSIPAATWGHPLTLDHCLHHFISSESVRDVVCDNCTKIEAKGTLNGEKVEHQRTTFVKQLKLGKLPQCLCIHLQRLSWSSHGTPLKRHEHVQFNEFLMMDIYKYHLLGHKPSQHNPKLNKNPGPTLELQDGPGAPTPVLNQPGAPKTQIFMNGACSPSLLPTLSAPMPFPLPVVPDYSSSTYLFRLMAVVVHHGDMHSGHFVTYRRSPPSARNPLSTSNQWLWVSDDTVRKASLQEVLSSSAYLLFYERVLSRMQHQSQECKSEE
Description: (§1) To explore the selectivity of IMP-2587 and IMP-2586 across the whole proteome, we performed quantitative activity-based protein profiling (ABPP) in HEK293T cells following treatment with IMP-2587 or IMP-2586 (Fig. 3a). After ABP incubation, cells were lysed, and probe-labelled proteins were ligated to biotinylated capture reagents.[27] […] USP30 was outcompeted by corresponding parent inhibitors for each ABP (Fig. 5b and d and Tables S3 and S5, ESI ^†), confirming the high potency and rapid engagement of IMP-2587 and IMP-2586 in cells. […] DESI1 and DESI2 are small ubiquitin-related modifier (SUMO) proteases,[3,29–32] and IMP-2587 and IMP-2586 may offer a starting point for future development of DESI ABPs. […]
(§2) d) Live cell probe incubation, lysate click chemistry and precipitation 6-well HEK293T cells were incubated with media containing compounds ABP 2 and ABP 4 at indicated concentrations for 1 h at 37 °C. The cells were washed with PBS and lysed with lysis buffer (50 μL (1% (v/v) Triton X-100, 0.1% (w/v) sodium dodecyl sulfate (SDS), EDTA-free complete protease inhibitor cocktail (1×, Roche) in PBS on ice for 10 min. The lysates were scraped and transferred to corresponding Lo-Bind Eppendorfs. Each lysate was sonicated for 1 minute, and the samples centrifuges at 5,000 x g at 4 °C for 5 minutes to pellet insoluble cellular debris. The supernatant was collected, and protein concentration was determined using the DC Protein Assay (Bio-Rad) as per manufacturer’s instructions, and normalised to lowest concentrated sample (e.g. 1 mg/mL, using lysis buffer). The following “click mixture” was prepared separately, preparing 6 μL for every 100 μL of […]
(§3) Capture reagent (AzRB/AzT for ABP 2, YnT/YnB for ABP 4 10 mM in DMSO, 1 vol; final concentration […]
(§4) CuSO4 (50 mM in water, 2 vol; final concentration in reaction 1 mM)
(§5) TCEP (50 mM in water, 2 vol; final concentration in reaction 1 mM)
(§6) TBTA (10 mM in DMSO, 1 vol; final concentration in reaction 100 µM)
(§7) The click mixture was vortexed and incubated at room temperature for 2 min before 6 μL of the mixture was added to every 100 μL of lysate. The reaction mixtures were shaken at room temperature for 1 h before being quenched with EDTA (500 mM in H2O) to a final concentration of 10 mM.
(§8) Proteins were precipitated by adding H2O (1 vol), MeOH (2 vol) and CHCl3 (0.5 vol), vortexing briefly then centrifuging at 17,000 × g for 5 min. The top H2O/MeOH layer was discarded and the middle layer of protein pellet and lower CHCl3 layer retained. The suspension was washed with MeOH (300 μL), and sonicated to break up the pellet. The proteins were pelleted by centrifugation at 10,000–17000 × g for 5–10 min or until a compact pellet was formed. The protein pellet was washed once more with MeOH (1 mL). The pellet was resuspended by sonicating and completely dissolving in 1% (w/v) SDS in PBS (to 5 mg/mL protein) before being made up to 1 mg/mL protein with PBS. […]
(§9) f) Neutravidin biotin enrichment (Affinity pull-down)
(§10) Click chemistry and precipitation steps were carried out as described in section 3.2.d, on at least 400ug of protein per sample. The pellet was resuspended by sonicating and completely dissolving in 1% (w/v) SDS in HEPES 50 mM pH 8.0, before being made up to 1 mg/mL protein with HEPES 50 mM pH 8.0 to […]
(§11) achieve a final concentration of 0.2% SDS. 20uL of each samples was collected as TL (Total lysate) samples. Pull down of biotinylated proteins was achieved by incubating samples with pre-equilibrated (3x 1 mL washes with 0.2% (w/v) SDS in HEPES 50 mM pH 8 buffer) Pierce™ NeutrAvidin™ Agarose beads for 3 hours at room temperature. NeutrAvidin™ Agarose beads were used in ratio of 1 μL bead resin per 10ug of protein sample. The beads were subsequently washed by moderate shaking for 10 seconds then briefly pelleting by table-top centrifuge then vacuum aspirating the supernatant with fine-end pipette tips (to not disturb the agarose) after collecting 20 µL supernatant as SN (supernatant […]
(§12) ) samples. […]

ISOC1 = molecular target: T2, ISOC1 (Homo sapiens, UniProt Q96CN7); experiment: as above; format: cell-based
T2 construct: endogenous in cells; host or cells: HEK293T
T2 sequence (Q96CN7 1-298): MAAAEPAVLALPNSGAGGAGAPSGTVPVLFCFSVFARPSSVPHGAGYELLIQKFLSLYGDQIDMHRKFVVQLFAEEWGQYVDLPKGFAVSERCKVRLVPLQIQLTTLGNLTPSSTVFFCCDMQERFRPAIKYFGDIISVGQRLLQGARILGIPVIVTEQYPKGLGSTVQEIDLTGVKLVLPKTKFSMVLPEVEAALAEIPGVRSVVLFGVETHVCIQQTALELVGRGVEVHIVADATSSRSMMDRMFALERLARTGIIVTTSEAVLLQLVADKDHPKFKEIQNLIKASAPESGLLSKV
Description: as §1, §2, §3, §4, §5, §6, §7, §8, §9, §10, §11, §12

[1] = IMP-2586 labelling vs DMSO, 30 nM, 10 min, HEK293T (Table S4, Fig.5c)
[2] = compound 1 out-competition with IMP-2587 labelling, HEK293T (Table S3, Fig.5b)
[3] = compound 3 out-competition with IMP-2586 labelling, HEK293T (Table S5, Fig.5d)

SMILES: N#CN1CC[C@@H](NC(=O)c2cc(-c3ccccc3Oc3ccc(N=[N+]=[N-])cc3)n[nH]2)C1 [IMP-2586]
probe concentration for detection of USP30 activity in intact cells (USP30): 30 nM
Difference (log2 fold change of enrichment) (USP30; [1]): 4.80
Difference (log2 fold change of enrichment) (ISOC1; [1]): 1.71

SMILES: C#Cc1cccc(-c2cc(NC(=O)CC3CCN(C#N)C3)on2)c1 (stereo not drawn) [IMP-2587]
probe concentration for detection of USP30 activity in intact cells (USP30): 30 nM
Difference (log2 fold change of enrichment) (ISOC1; IMP-2587 labelling vs DMSO, 30 nM, 10 min, HEK293T (Table S2, Fig.5a)): 4.06

Difference (log2 fold change of enrichment) (USP30; [2]): -1.82
Difference (log2 fold change of enrichment) (ISOC1; [2]): -3.50
SMILES: N#CN1CC[C@H](CC(=O)Nc2cc(-c3cccc(Cl)c3)no2)C1 [compound 1, reference compound]

Difference (log2 fold change of enrichment) (USP30; [3]): -4.18
Difference (log2 fold change of enrichment) (ISOC1; [3]): -1.80
SMILES: N#CN1CC[C@@H](NC(=O)c2cc(-c3ccccc3Oc3ccccc3)n[nH]2)C1 [compound 3, reference compound]
